Results as given in patent US5580552A, “7-glycosyloxybenzopyran derivative and antiallergic agent containing the derivative as active ingredient” (priority 1994, dated 1996).

Legend:
[1] = tested on: experimental asthma model (airway resistance); assay: Effect on experimental asthma model in guinea pigs (airway resistance); assay type: in vivo, guinea pigs (male hartley); settings: Cavia porcellus, po, 0.5 h, 50 mg/kg oral (TABLE 6)
Description: Effect on experimental asthma model in guinea pigs
The asthma is typical allergic disease and we carried out this pharmacological test by well known experimental asthma model in guinea pigs in order to comfirm that the compounds of the present invention suppress the asthma. In the following, the method of the pharmacological test will be explained.
Method: Male hartley guinea pigs were immunized by intraperitoneal injection of saline (1ml) containing 5 mg of ovalbumine (OVA) three times at interval of one week. 2 weeks after final immunization, the animals were challenged by inhalation of 1% OVA-saline solution for 1 minute and then the airway resistance of the animals were measured for 30 minutes with PULMOS-1 (Medical Interface Project Station Inc.) after the inhalation. The compounds of the present invention (test compounds) suspended in 0.5% CMCNa were given orally at a dose of 50 mg/kg. As positive control group, Disodium Cromoglicate (DSCG), well known anti-allergic agent, in saline were injected at a dose of 20 mg/kg into the vein of the animals. As vehicle control group, only 0.5% CMCNa solution were given orally. The inhibition (%) of the airway resistance in vehicle control group was calculated according to equation 5 and the result was shown in TABLE 6. Each experimental group consisted of 5 guinea pigs. [formula]
A: Maximum airway resistance in vehicle control group
B: Maximum airway resistance in test compounds group or positive control group

[2] = tested on: homologous passive cutaneous anaphylaxis (PCA) reaction; assay: Effect on homologous passive cutaneous anaphylaxis (PCA) reaction in rats; assay type: in vivo, rats (male wistar); settings: Rattus norvegicus, po, 0.5 h, 50 mg/kg oral, 1 hour before challenge (TABLE 2)
Description: Effect on homologous passive cutaneous anaphylaxis (PCA) reaction in rats.
This experimental animal model is caused by immediate type allergic reaction namely, antigen-antibody reaction. In the following, the method of this pharmacological test will be explained.
Method: Male wistar rats (9 weeks old) were intradermally administered 0.05 ml of anti-serum against dinitrophenylated ascaris (DNP-As) into two sites on the shaved dorsal skin. 48 hours later, 7-glycosyloxybenzopyran derivatives (test compounds) suspended in 0.5% sodium carboxymethylcellulose (CMCNa) were given orally at a dose of 50 mg/kg to the animals. One hour after administration of Test compounds, the animals were induced anaphylaxis by injection of saline (1 ml) dissolving 5 mg of Evans Blue and 1 mg of Trinitrophenylated ascaris (TNP-As) into the tail vein of the animals. 30 minutes after induction of anaphylaxis, animals were anesthetized by ether and killed by bleeding, and were flayed dorsal skin. The determination of extravasated dye was performed according to the method of Katayama et al. (Microbiol. Immunol., Vol.22, P 89-101, 1978). As vehicle control group, only 0.5% CMCNa solution was administered orally, and as positive control group, Tranilast suspended in 0.5% CMCNa was administered orally at a dose of 100 mg/kg to the animals with the same method as the test compounds groups. Each experimental group consisted of 5 rats. [formula]

[3] = tested on: contact dermatitis induced by picryl chloride; assay: Effect on contact dermatitis induced by picryl chloride in mice; assay type: in vivo; settings: Mus musculus, po, 24 h, 50 mg/kg oral, 1 hour before and 16 hours after challenge; 24 hours after challenge; read-out: Inhibition (%) against the increase of ear thickness
Description: Effect on contact dermatitis induced by picryl chloride in mice
The delayed type hypersensitization is inhibited by steroid drugs,but can not be effected by known anti-allergic agents. In the following, the method of the pharmacological test will be explained.
Method: Mice, shaved their abdominal skin on previous day, were immunized by applying 0.1 ml of acetone containing 7 mg of picryl chloride to the skin of the abdomen. 7 days after immunization, the thickness of the ear was measured with a dial thickness gauge, then mice were challenged by painting 5 μl of 1% picryl chloride olive oil solution to each side skin of left ear. 24 hours after challenge, the thickness of the left ear was measured again and the increase (%) of thickness was calculated according to equation 2. The compounds of the present invention (test compounds) suspended in 0.5% CMCNa were forcibly administered orally at a dose of 50 mg/kg at 1 hour before and 16 hours after challenge. As vehicle control group, only 0.5% CMCNa solution were administered orally, and as positive control group, Prednisolone, steroid hormone, and Tranilast were administered orally at the doses of 10 mg/kg and 100 mg/kg, respectively.
Increase (%)=(A-B)/B×100 (Equation 2)
A: thickness of the ear at 24 hours after challenge
B: thickness of the ear before challenge
Inhibition (%)=(C-D)/C×100 (equation 3)
C: The increase (%) in vehicle control group
D: The increase (%) in test compounds group or positive control group

Structure (SMILES) | inhibition in vivo at 50 mg/kg [1] [%] | inhibition in vivo at 50 mg/kg [2] [%] | inhibition in vivo at 50 mg/kg [3] [%]
O=c1oc2cc(O[C@H]3O[C@H](CO)[C@@H](O)[C@H](O)[C@@H]3O)ccc2c(O)c1OCc1ccccc1 [compound 72] | 52.1 | 45.2 | 42.3
CCCCCCOc1c(OCc2ccccc2)c2ccc(O[C@@H]3O[C@H](COC(C)=O)[C@H](OC(C)=O)[C@H](OC(C)=O)[C@H]3OC(C)=O)cc2oc1=O [compound 75] | 43.5 | 45.5 | 40.3
CCCCOc1c(O)c2ccc(O[C@@H]3O[C@H](CO)[C@H](O)[C@H](O)[C@H]3O)cc2oc1=O [compound 86] | 73.2 | 56.4 | 59.4
CCCCCCOc1c(O)c2ccc(O[C@@H]3O[C@H](CO)[C@H](O)[C@H](O)[C@H]3O)cc2oc1=O [compound 87] | 79.5 | 60.3 | 64.9
CCCCCCCCOc1c(O)c2ccc(O[C@@H]3O[C@H](CO)[C@H](O)[C@H](O)[C@H]3O)cc2oc1=O [compound 88] | 80.2 | 61.5 | 66.8
CCCCCCCCCCOc1c(O)c2ccc(O[C@@H]3O[C@H](CO)[C@H](O)[C@H](O)[C@H]3O)cc2oc1=O [compound 89] | 77.3 | 57.8 | 62.3
CCCCCCCCCCCCOc1c(O)c2ccc(O[C@@H]3O[C@H](CO)[C@H](O)[C@H](O)[C@H]3O)cc2oc1=O [compound 90] | 72.1 | 54.3 | 60.1
CC(C)Oc1c(O)c2ccc(O[C@@H]3O[C@H](CO)[C@H](O)[C@H](O)[C@H]3O)cc2oc1=O [compound 91] | 69.5 | 55.5 | 59.3
CC1CCC(Oc2c(O)c3ccc(O[C@@H]4O[C@H](CO)[C@H](O)[C@H](O)[C@H]4O)cc3oc2=O)CC1 (stereo partly drawn) [compound 92] | 65.2 | 58.9 | 57.2
C=COc1c(O)c2ccc(O[C@@H]3O[C@H](CO)[C@H](O)[C@H](O)[C@H]3O)cc2oc1=O [compound 93] | 69.7 | 55.2 | 56.4
CCC=CCCOc1c(O)c2ccc(O[C@@H]3O[C@H](CO)[C@H](O)[C@H](O)[C@H]3O)cc2oc1=O [compound 94] | 73.2 | 53.7 | 51.2
CC(C)=CCC/C(C)=C/COc1c(O)c2ccc(O[C@@H]3O[C@H](CO)[C@H](O)[C@H](O)[C@H]3O)cc2oc1=O [compound 95] | 63.2 | 54.2 | 55.8
O=c1oc2cc(O[C@@H]3O[C@H](CO)[C@H](O)[C@H](O)[C@H]3O)ccc2c(O)c1OCc1ccccc1 [compound 96] | 58.2 | 50.1 | 48.9
CCCCOc1c(OC(=O)CC)c(=O)oc2cc(O[C@@H]3O[C@H](COC(C)=O)[C@@H](OC(C)=O)[C@H](OC(C)=O)[C@H]3OC(C)=O)ccc12 [compound 99] | 39.2 | 40.2 | 40.3
O=c1oc2cc(O[C@@H]3O[C@H](CO)[C@@H](O)[C@H](O)[C@H]3O)ccc2c(O)c1O [compound 108] | 50.1 | 45.3 | 42.4
